# Data from patent US12583858B2 (Genentech, Inc., priority 2015, dated 2026).
# Target: T1, TDO2 (Homo sapiens, UniProt P48775)
# T1 construct: decreased levels of NFK in SW48 cells (high TDO expressing cells)
# Experiment: TDO2 cell assay (NFK GreenScreen, SW48 cells)
# Type: cell-based
# Settings: SW48 cells (high TDO expressing), 200 uM tryptophan, 24 hours; Table 3; read-out: TDO2 Cell Fluor EC50
# T1 sequence (P48775 whole entry): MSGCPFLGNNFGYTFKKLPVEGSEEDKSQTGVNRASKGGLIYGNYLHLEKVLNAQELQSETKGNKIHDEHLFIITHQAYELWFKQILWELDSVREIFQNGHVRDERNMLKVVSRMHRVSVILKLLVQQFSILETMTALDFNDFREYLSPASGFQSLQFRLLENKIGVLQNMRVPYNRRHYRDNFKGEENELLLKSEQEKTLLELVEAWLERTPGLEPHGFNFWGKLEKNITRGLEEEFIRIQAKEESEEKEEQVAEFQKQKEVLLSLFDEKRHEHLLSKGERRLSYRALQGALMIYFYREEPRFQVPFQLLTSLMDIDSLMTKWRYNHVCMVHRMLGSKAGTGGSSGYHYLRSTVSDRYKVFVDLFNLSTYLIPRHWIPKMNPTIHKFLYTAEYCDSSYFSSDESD
row,EC50,Structure (SMILES)
1,12 µM,"NC(=O)c1ccc2c(c1)C(O)C(C1c3ccccc3-c3cncn31)CC2 (single isomer, unassigned) [Example 122b]"
2,23 µM,"NC(=O)c1ccc2c(c1)C(O)C(C1c3ccccc3-c3cncn31)CC2 (single isomer, unassigned) [Example 122c]"
3,0.37 µM,"NC(=O)c1ccc2c(c1)C(O)C(C1c3ccccc3-c3cncn31)CC2 (single isomer, unassigned) [Example 122d]"
4,0.09 µM,"NC(=O)c1ccc2c(c1)C(O)C(C1c3ccccc3-c3cncn31)CC2 (single isomer, unassigned) [Example 122e]"
5,0.91 µM,"NC(=O)c1ccc2c(c1)C(O)C(C1c3ccccc3-c3cncn31)CC2 (single isomer, unassigned) [Example 122f]"
6,24 µM,"O[C@@H]1c2nccnc2CC[C@H]1[C@H]1c2ccccc2-c2cncn21 (single isomer, unassigned) [Example 123a]"
7,0.23 µM,"O[C@@H]1c2nccnc2CC[C@H]1[C@H]1c2ccccc2-c2cncn21 (single isomer, unassigned) [Example 123b]"
8,16 µM,"Cc1ncc2c(n1)CCC(C1c3ccccc3-c3cncn31)C2O (single isomer, unassigned) [Example 124a]"
9,0.29 µM,"Cc1ncc2c(n1)CCC(C1c3ccccc3-c3cncn31)C2O (single isomer, unassigned) [Example 124b]"
10,> 25 µM,"O[C@@H]1c2ncccc2CC[C@H]1[C@H]1c2ccccc2-c2cncn21 (single isomer, unassigned) [Example 126a]"
11,0.083 µM,"O[C@@H]1c2ncccc2CC[C@H]1[C@H]1c2ccccc2-c2cncn21 (single isomer, unassigned) [Example 126b]"
12,3.7 µM,"CC(C)(C)OC(=O)N1CCCC(O)(C2c3ccccc3-c3cncn32)C1 (single isomer, unassigned) [Example 127a]"
13,0.89 µM,"CC(C)(C)OC(=O)N1CCCC(O)(C2c3ccccc3-c3cncn32)C1 (single isomer, unassigned) [Example 127b]"
14,0.76 µM,"CC(C)(C)OC(=O)N1CCCC(O)(C2c3ccccc3-c3cncn32)C1 (single isomer, unassigned) [Example 127c]"
15,> 25 µM,"OC1(C2c3ccccc3-c3cncn32)CCOC1 (single isomer, unassigned) [Example 129a]"
16,17 µM,"OC1(C2c3ccccc3-c3cncn32)CCOC1 (single isomer, unassigned) [Example 129b]"

row,EC50,Structure (SMILES)
1,4.5 µM,"OC1(C2c3ccccc3-c3cncn32)CCOC1 (single isomer, unassigned) [Example 129c]"
2,2.6 µM,"OC1(C2c3ccccc3-c3cncn32)CCOC1 (single isomer, unassigned) [Example 129d]"
3,1.5 µM,"Cn1cc2c(n1)CCC(C1c3ccccc3-c3cncn31)C2O (single isomer, unassigned) [Example 130a]"
4,0.65 µM,"Cn1cc2c(n1)CCC(C1c3ccccc3-c3cncn31)C2O (single isomer, unassigned) [Example 130b]"
5,> 25 µM,"Cn1cc2c(n1)CCC(C1c3ccccc3-c3cncn31)C2O (single isomer, unassigned) [Example 130c]"
6,3.1 µM,"Cn1cc2c(n1)CCC(C1c3ccccc3-c3cncn31)C2O (single isomer, unassigned) [Example 130e]"
7,1.2 µM,"Cn1cc2c(n1)CCC(C1c3ccccc3-c3cncn31)C2O (single isomer, unassigned) [Example 130f]"
8,4.5 µM,"Cn1cc2c(n1)CCC(C1c3ccccc3-c3cncn31)C2O (single isomer, unassigned) [Example 130g]"
9,> 25 µM,"Cn1cc2c(n1)CCC(C1c3ccccc3-c3cncn31)C2O (single isomer, unassigned) [Example 130h]"
10,> 25 µM,"OC1c2ccnn2CCCC1C1c2ccccc2-c2cncn21 (single isomer, unassigned) [Example 133a]"
11,0.94 µM,"OC1c2ccnn2CCCC1C1c2ccccc2-c2cncn21 (single isomer, unassigned) [Example 133b]"
12,6 µM,"OC1c2ccnn2CCCC1C1c2ccccc2-c2cncn21 (single isomer, unassigned) [Example 133c]"
13,> 25 µM,"OC1c2ccnn2CCCC1C1c2ccccc2-c2cncn21 (single isomer, unassigned) [Example 133d]"
14,0.28 µM,"OC1c2ccnn2CCCC1C1c2ccccc2-c2cncn21 (single isomer, unassigned) [Example 133e]"
15,> 25 µM,"OC1c2ccnn2CCCC1C1c2ccccc2-c2cncn21 (single isomer, unassigned) [Example 133f]"
16,3 µM,"OC1c2ccnn2CCCC1C1c2ccccc2-c2cncn21 (single isomer, unassigned) [Example 133g]"

# The next lines start with the molecule.
row,Structure (SMILES),EC50
1,"N#Cc1ccc2c(c1)C(O)C(C1c3ccccc3-c3cncn31)CC2 (single isomer, unassigned) [Example 113c]",0.06 µM
2,"N#Cc1ccc2c(c1)C(O)C(C1c3ccccc3-c3cncn31)CC2 (single isomer, unassigned) [Example 113f]",0.17 µM
3,"N#Cc1ccc2c(c1)C(O)C(C1c3ccccc3-c3cncn31)CC2 (single isomer, unassigned) [Example 113g]",3.3 µM
4,"CCS(=O)(=O)N1CCC2(CC1)CC(C1c3ccccc3-c3cncn31)C2O (single isomer, unassigned) [Example 114a]",0.39 µM
5,"CCS(=O)(=O)N1CCC2(CC1)CC(C1c3ccccc3-c3cncn31)C2O (single isomer, unassigned) [Example 114c]",15 µM
6,"CCS(=O)(=O)N1CCC2(CC1)CC(C1c3ccccc3-c3cncn31)C2O (single isomer, unassigned) [Example 114d]",0.22 µM
7,"CCS(=O)(=O)N1CCC2(CC1)CC(C1c3ccccc3-c3cncn31)C2O (single isomer, unassigned) [Example 114e]",1.2 µM
8,"CCS(=O)(=O)N1CCC2(CC1)CC(C1c3ccccc3-c3cncn31)C2O (single isomer, unassigned) [Example 114f]",0.91 µM
9,"OC1CCCCCC1C1c2ccccc2-c2cncn21 (single isomer, unassigned) [Example 115a, 2-(5H-imidazo[5,1-a]isoindol-5-yl)cycloheptan-1-ol]",14 µM
10,"OC1CCCCCC1C1c2ccccc2-c2cncn21 (single isomer, unassigned) [Example 115b, 2-(5H-imidazo[5,1-a]isoindol-5-yl)cycloheptan-1-ol]",3.4 µM
11,"OC1CCCCCC1C1c2ccccc2-c2cncn21 (single isomer, unassigned) [Example 115c, 2-(5H-imidazo[5,1-a]isoindol-5-yl)cycloheptan-1-ol]",0.05 µM
12,"OC1CCCCCC1C1c2ccccc2-c2cncn21 (single isomer, unassigned) [Example 115d, 2-(5H-imidazo[5,1-a]isoindol-5-yl)cycloheptan-1-ol]",0.1 µM
13,"CS(=O)(=O)N1CCC(O)(C2c3ccccc3-c3cncn32)C1 (single isomer, unassigned) [Example 116a]",> 25 µM
14,"CS(=O)(=O)N1CCC(O)(C2c3ccccc3-c3cncn32)C1 (single isomer, unassigned) [Example 116b]",2.5 µM
15,"CS(=O)(=O)N1CCC(O)(C2c3ccccc3-c3cncn32)C1 (single isomer, unassigned) [Example 116c]",> 25 µM
16,"CS(=O)(=O)N1CCC(O)(C2c3ccccc3-c3cncn32)C1 (single isomer, unassigned) [Example 116d]",0.73 µM
17,"CS(=O)(=O)N1CCC(O)C(C2c3ccc(F)cc3-c3cncn32)C1 (single isomer, unassigned) [Example 118a]",> 25 µM

row,Structure (SMILES),EC50
1,"CS(=O)(=O)N1CCC(O)C(C2c3ccc(F)cc3-c3cncn32)C1 (single isomer, unassigned) [Example 118b]",> 25 µM
2,"CS(=O)(=O)N1CCC(O)C(C2c3ccc(F)cc3-c3cncn32)C1 (single isomer, unassigned) [Example 118c]",13 µM
3,"CS(=O)(=O)N1CCC(O)C(C2c3ccc(F)cc3-c3cncn32)C1 (single isomer, unassigned) [Example 118d]",> 25 µM
4,"CS(=O)(=O)N1CCC(C2c3ccc(F)cc3-c3cncn32)C(O)C1 (single isomer, unassigned) [Example 119a]",> 25 µM
5,"CS(=O)(=O)N1CCC(C2c3ccc(F)cc3-c3cncn32)C(O)C1 (single isomer, unassigned) [Example 119b]",8.4 µM
6,"CS(=O)(=O)N1CCC(C2c3ccc(F)cc3-c3cncn32)C(O)C1 (single isomer, unassigned) [Example 119c]",0.22 µM
7,"O[C@@H]1COCC[C@H]1[C@@H]1c2c(F)cccc2-c2cncn21 (single isomer, unassigned) [Example 120c]",14 µM
8,"O[C@@H]1COCC[C@H]1[C@@H]1c2c(F)cccc2-c2cncn21 (single isomer, unassigned) [Example 120d]",> 25 µM
9,"Nc1ccc2c(n1)CCC(C1c3ccccc3-c3cncn31)C2O (single isomer, unassigned) [Example 121a]",0.84 µM
10,"Nc1ccc2c(n1)CCC(C1c3ccccc3-c3cncn31)C2O (single isomer, unassigned) [Example 121b]",> 25 µM
11,"Nc1ccc2c(n1)CCC(C1c3ccccc3-c3cncn31)C2O (single isomer, unassigned) [Example 121c]",0.22 µM
12,"Nc1ccc2c(n1)CCC(C1c3ccccc3-c3cncn31)C2O (single isomer, unassigned) [Example 121d]",17 µM
13,"Nc1ccc2c(n1)CCC(C1c3ccccc3-c3cncn31)C2O (single isomer, unassigned) [Example 121e]",16 µM
14,"Nc1ccc2c(n1)CCC(C1c3ccccc3-c3cncn31)C2O (single isomer, unassigned) [Example 121f]",24 µM
15,"Nc1ccc2c(n1)CCC(C1c3ccccc3-c3cncn31)C2O (single isomer, unassigned) [Example 121g]",> 25 µM
16,"Nc1ccc2c(n1)CCC(C1c3ccccc3-c3cncn31)C2O (single isomer, unassigned) [Example 121h]",4.8 µM
